Legend:
Assay type in all cases: cell-based
human A375 cells = assay: Protection of melanocytes from tunicamycin (ER stress) induced cell death, MTT assay, A375; settings: for EC50: Homo sapiens, A-375, different concentrations of compound along with tunicamycin, GraphPad Prism 7; for % Recovery: compound at 25-30 μM, 6 h pretreatment, tunicamycin 100 ng/ml, total 72 h, cell growth over tunicamycin treatment
Description: (§1) Compounds synthesized under present invention were tested for their in vitro potency. The potency was tested as their ability to protect melanocytes from ER stress induced cell death. ER stress was caused by the treatment of tunicamycin. The results obtained are summarized in Table-I, Table-II and Table-III for mouse B16F10 cells, human A375 cells and human primary melanocytes respectively. Table-IV and Table-V describes the potency of the compounds in effective concentration 50 (EC50) which means the dose of compound needed to get the 50% of maximum effect.
(§2) For the estimation of potency, mouse B16F10, human A375 or human primary melanocytes (NHEM) cells were pretreated in quadruplicates with these compounds for 6 hours. After 6 hours of incubation, tunicamycin was added at either 300 ng/ml for B16F10 cells or at 100 ng/ml for A375 cells or at 200 ng/ml for NHEM to induce stress mediated cell death and cultured further for a total of 72 hours. The vehicle (DMSO) concentration was kept constant for each well. After 72 hours of treatment, MTT assay was performed to measure the cell growth and vehicle control was kept at 100%. Effect of the treatment of compounds was calculated as cell growth over tunicamycin treatment. For the estimation of Effective Concentration 50 (EC50), cells were treated with different concentration of compounds along with tunicamycin and MTT assay was performed. The EC50 values were calculated by GraphPad Prism 7 software.

mouse B16F10 cells = assay: Protection of melanocytes from tunicamycin (ER stress) induced cell death, MTT assay, B16F10; settings: for % Recovery: compound at 25-30 μM, 6 h pretreatment, tunicamycin 300 ng/ml, total 72 h, cell growth over tunicamycin treatment; for EC50: Mus musculus, B16-F10, different concentrations of compound along with tunicamycin, GraphPad Prism 7
Description: as §1, §2

[1] = system: human primary melanocytes (NHEM: Normal Human Epidermal Melanocytes); assay: Protection of melanocytes from tunicamycin (ER stress) induced cell death, MTT assay, NHEM; settings: compound at 25-30 μM, 6 h pretreatment, tunicamycin 200 ng/ml, total 72 h, cell growth over tunicamycin treatment
Description: as §1, §2

| SMILES | EC50 (human A375 cells) [µM] | % Recovery (human A375 cells) [%] | % Recovery (mouse B16F10 cells) [%] | % Recovery [1] [%] | EC50 (mouse B16F10 cells) [µM] |
| --- | --- | --- | --- | --- | --- |
| O=C(NCCc1c[nH]c(-c2ccc(Cl)cc2)n1)c1cc(F)cc(F)c1 [Compound 054, N-(2-(2-(4-chlorophenyl)-1H-imidazol-4-yl)ethyl)-3,5-difluorobenzamide] | 2.9 | 58 | 33 | 46 |  |
| CC(C)(C)CC(=O)NCCc1c[nH]c(-c2ccc(Cl)cc2)n1 [Compound 025, N-(2-(2-(4-chlorophenyl)-1H-imidazol-4-yl)ethyl)-3,3-dimethylbutanamide] | 14.2 | 57 | 55 | 41 | 3.3 |
| CC(C)CC(=O)NCCc1c[nH]c(-c2ccc(Cl)cc2)n1 [Compound 027, N-(2-(2-(4-chlorophenyl)-1H-imidazol-4-yl)ethyl)-3-methylbutanamide] | 14.9 | 56 |  | 33 |  |
| CCC(C)(C)C(=O)NCCc1c[nH]c(-c2ccc(Cl)cc2)n1 [Compound 026, N-(2-(2-(4-chlorophenyl)-1H-imidazol-4-yl)ethyl)-2,2-dimethylbutanamide] | 18.6 | 50 | 15 | 30 | 8.6 |
| O=C(Cc1c[nH]c(-c2ccc(Cl)cc2)n1)Nc1ccc(C(F)(F)F)cc1 [Compound 014, 2-(2-(4-chlorophenyl)-1H-imidazol-4-yl)-N-(4-(trifluoromethyl)phenyl)acetamide] | 33.3 | 36 | 52 |  |  |
| O=C(NCCc1c[nH]c(-c2ccc(Cl)cc2)n1)C12CC3CC(CC(C3)C1)C2 [Compound 064, (3r,5r,7r)-N-(2-(2-(4-chlorophenyl)-1H-imidazol-4-yl)ethyl)adamantane-1-carboxamide] | 4.9 | 65 |  | 38 |  |
| O=C(NCCc1c[nH]c(-c2ccc(Cl)cc2Cl)n1)c1ccc(C(F)(F)F)cc1 [Compound 066, N-(2-(2-(2,4-dichlorophenyl)-1H-imidazol-4-yl)ethyl)-4-(trifluoromethyl)benzamide] | 12.1 | 44 | 50 |  | 7.2 |
| CCCC(=O)NCCc1c[nH]c(-c2ccc(Cl)cc2)n1 [Compound 002, N-(2-(2-(4-chlorophenyl)-1H-imidazol-4-yl)ethyl)butyramide] | 20.6 | 22 | 58 | 17 | 2.71 |
| Cn1cc(CC(=O)NCCc2ccc(F)cc2)nc1-c1ccc(Cl)cc1 [Compound 022, 2-(2-(4-chlorophenyl)-1-methyl-1H-imidazol-4-yl)-N-(4-fluorophenethyl)acetamide] |  | 18 | 44 |  | 13.7 |
| O=C(NCCc1c[nH]c(-c2ccc(Cl)cc2)n1)c1ccc(C(F)(F)F)cc1 [Compound 053, N-(2-(2-(4-chlorophenyl)-1H-imidazol-4-yl)ethyl)-4-(trifluoromethyl)benzamide] | 2.9 | 65 | 24 | 37 | 18.1 |
| O=C(NCCc1c[nH]c(-c2ccc(Cl)cc2)n1)C1=CCCC1 [Compound 055, N-(2-(2-(4-chlorophenyl)-1H-imidazol-4-yl)ethyl)cyclopent-1-ene-1-carboxamide] | 8.9 | 59 | 10 | 13 |  |
| Cn1cc(CC(=O)Nc2cccc(C(F)(F)F)c2)nc1-c1ccc(Cl)cc1 [Compound 007, 2-(2-(4-chlorophenyl)-1-methyl-1H-imidazol-4-yl)-N-(3-(trifluoromethyl)phenyl)acetamide] |  | 19 | 38 |  |  |
| CCCCCC(=O)NCCc1c[nH]c(-c2ccc(Cl)cc2)n1 [Compound 067, N-(2-(2-(4-chlorophenyl)-1H-imidazol-4-yl)ethyl)hexanamide] | 3.1 | 54 | 40 |  | 9.7 |
| O=C(NCCc1c[nH]c(-c2ccc(Cl)cc2)n1)c1ccc(F)cc1 [Compound 051, N-(2-(2-(4-chlorophenyl)-1H-imidazol-4-yl)ethyl)-4-fluorobenzamide] | 5.9 | 50 | 22 | 35 |  |
| O=C(NCCc1c[nH]c(-c2ccc(Cl)cc2Cl)n1)c1ccc(F)cc1 [Compound 070, N-(2-(2-(2,4-dichlorophenyl)-1H-imidazol-4-yl)ethyl)-4-fluorobenzamide] | 8.1 | 44 | 51 |  | 11.9 |
| CC(C)OCCCNC(=O)Cc1c[nH]c(-c2ccc(Cl)cc2)n1 [Compound 010, 2-(2-(4-chlorophenyl)-1H-imidazol-4-yl)-N-(3-isopropoxypropyl)acetamide] |  | 17 | 12 |  |  |
| O=C(NCCc1c[nH]c(-c2ccc(Cl)cc2)n1)C1CCC1 [Compound 050, N-(2-(2-(4-chlorophenyl)-1H-imidazol-4-yl)ethyl)cyclobutanecarboxamide] | 33.4 | 27 | 35 | 5 |  |
| O=C(NCCc1c[nH]c(-c2ccc(Cl)cc2)n1)C1CC1 [Compound 046, N-(2-(2-(4-chlorophenyl)-1H-imidazol-4-yl)ethyl)cyclopropanecarboxamide] | 7.9 | 63 | 27 | 10 |  |
| O=C(NCCc1c[nH]c(-c2ccc(Cl)cc2Cl)n1)c1cc(F)cc(F)c1 [Compound 071, N-(2-(2-(2,4-dichlorophenyl)-1H-imidazol-4-yl)ethyl)-3,5-difluorobenzamide] | 10.5 | 39 | 58 |  | 10.9 |
